Structures are written as SMILES.

Epidermal growth factor receptor, sequence (P00533 whole entry): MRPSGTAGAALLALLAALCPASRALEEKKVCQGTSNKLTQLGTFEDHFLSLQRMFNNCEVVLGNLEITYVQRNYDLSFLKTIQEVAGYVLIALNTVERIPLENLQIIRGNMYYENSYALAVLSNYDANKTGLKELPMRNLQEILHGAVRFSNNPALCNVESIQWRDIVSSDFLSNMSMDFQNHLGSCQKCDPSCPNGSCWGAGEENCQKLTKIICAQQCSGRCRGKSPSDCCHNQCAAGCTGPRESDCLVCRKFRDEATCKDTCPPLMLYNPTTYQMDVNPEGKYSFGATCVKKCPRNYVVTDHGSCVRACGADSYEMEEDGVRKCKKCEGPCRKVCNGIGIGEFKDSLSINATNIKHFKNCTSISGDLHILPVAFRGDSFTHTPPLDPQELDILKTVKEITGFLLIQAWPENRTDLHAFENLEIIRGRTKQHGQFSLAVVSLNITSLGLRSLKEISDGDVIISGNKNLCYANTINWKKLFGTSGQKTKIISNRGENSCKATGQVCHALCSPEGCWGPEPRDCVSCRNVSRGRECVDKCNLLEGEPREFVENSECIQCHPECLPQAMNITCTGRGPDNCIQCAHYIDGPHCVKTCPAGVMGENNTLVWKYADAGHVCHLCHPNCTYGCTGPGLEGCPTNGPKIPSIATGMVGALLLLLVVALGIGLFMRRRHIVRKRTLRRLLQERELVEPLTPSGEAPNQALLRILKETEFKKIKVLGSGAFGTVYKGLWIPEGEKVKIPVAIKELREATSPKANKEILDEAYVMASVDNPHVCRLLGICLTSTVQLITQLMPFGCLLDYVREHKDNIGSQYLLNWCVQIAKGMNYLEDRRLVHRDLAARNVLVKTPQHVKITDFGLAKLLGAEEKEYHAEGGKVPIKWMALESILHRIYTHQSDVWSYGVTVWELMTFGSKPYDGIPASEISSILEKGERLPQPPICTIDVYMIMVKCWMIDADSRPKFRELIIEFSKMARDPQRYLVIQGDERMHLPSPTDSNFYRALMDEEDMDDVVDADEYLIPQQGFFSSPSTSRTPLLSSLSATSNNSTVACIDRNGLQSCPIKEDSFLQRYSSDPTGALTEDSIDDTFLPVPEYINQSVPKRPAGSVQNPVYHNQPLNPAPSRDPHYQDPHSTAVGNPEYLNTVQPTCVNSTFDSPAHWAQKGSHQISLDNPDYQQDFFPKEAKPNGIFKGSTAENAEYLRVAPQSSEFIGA

The assay concerns the target Epidermal growth factor receptor (Homo sapiens, UniProt P00533). The assay can be described thus: Kinase Enzyme Assay. Particulars: 37 °C. From the text: EGFR kinase assay was perform using Nunc MaxiSorp purchased from Nalge Nunc Interantional.
Consider `CN(CCN(CCN1CCOCC1)CCN(C)/N=N/c1ccc2ncnc(Nc3cccc(Br)c3)c2c1)/N=N/c1ccc2ncnc(Nc3cccc(Br)c3)c2c1` [Bis-quinazolinotriazene, 5b], for which the IC50 came out at 120 nM.

As for `CN(CCN(CCN1CCOCC1)CCN(C)/N=N/c1ccc2ncnc(Nc3cccc(Cl)c3)c2c1)/N=N/c1ccc2ncnc(Nc3cccc(Cl)c3)c2c1` [Bis-quinazolinotriazene, 5c], the IC50 worked out at 150 nM. This IC50 and that of the molecule before are within 1.5-fold of each other.

In turn, `Cc1cccc(Nc2ncnc3ccc(/N=N/N(C)CCN(CCN4CCOCC4)CCN(C)/N=N/c4ccc5ncnc(Nc6cccc(C)c6)c5c4)cc23)c1` [Bis-quinazolinotriazene, 5a] displayed an IC50 of 950 nM.

The record behind these values is BindingDB's records for doi:10.1111/j.1747-0285.2008.00638.x (Mcgill University/Royal Victoria Hospital, 2008).
